The values below come from US20220008402A1, “INCREASED E-CADHERIN EXPRESSION OR ACTIVITY FOR THE TREATMENT OF INFLAMMATORY DISEASES” (The Cleveland Clinic Foundation, priority 2020, published 2022).

The structures appear in SMILES notation. Entries after “also recorded” stand apart in the source; their conditions may differ.

One test has as its system E-cadherin. The note with it: literature reports; cited from earlier work.
Test [1] concerns T84 cell monolayers. As to the kind of experiment: Immunoblotting of signaling molecules after multiple wounding. It counts as cell-based, human. The note with it: 10 μM pretreatment 24 h; lysates 12 and 24 h post-wounding. The protocol: Confluent T84 cell monolayers were pretreated with either vehicle, ECU (10 μM), or ML327 (10 μM), for 24 h, and were subjected to multiple wounding. Total cell lysates were collected at 12 and 24 h post-wounding, and the expression of different signaling molecules was determined by immunoblotting. Representative immunoblots (A) and densitometric quantification of protein band intensities from three independent experiments (B) are shown. Data are presented as a mean ±SE (n=3); *p<0.05; **p<0.01.
To prepare total cell lysates, epithelial cell monolayers were scraped and homogenized using a Dounce homogenizer in RIPA buffer (20 mM Tris, 50 mM NaCl, 2 mM EDTA, 2 mM EGTA, 1% sodium deoxycholate, 1% Triton X-100 (TX-100), and 0.1% SDS, pH 7.4) containing protease inhibitor cocktail and phosphatase inhibitor cocktails 2 and 3 (Sigma-Aldrich). The obtained total cell lysates were cleared by centrifugation (20 min at 14,000×g), diluted with 2×SDS sample loading buffer and boiled. SDS-polyacrylamide gel electrophoresis was conducted using a standard protocol with equal amounts of total protein (10 or 20 μg) loaded per each lane. The separated proteins were transferred to nitrocellulose membranes and the membranes were blocked with 5% non-fat milk. […]
For orientation: Immunoblotting shows a protein as a band on a membrane.

Test [2] concerns HT-29 cF8 cell monolayers. The experiment in a line: Epithelial barrier permeability in vitro (TEER, FITC-dextran flux), steady state. It counts as cell-based, human. The note with it: 10 μM. The protocol:
(§1) FIG. 1: E-cadherin-enhancing drugs decrease ionic permeability of model colonic epithelial cell monolayers. Confluent T84 (A), HT-29cF8 (B) and SK-0015 (C) cell monolayers were treated for indicated times with either vehicle, E-cadherin upregulator (ECU, 10 μM), or ML327 (10 μM). Transepithelial electrical resistance (TEER) of the cell monolayers was measured before and during the drug treatment. Data is presented as mean ±SE (n=3); *P<0.05.
(§2) FIG. 2: E-cadherin-enhancing drugs decrease colonic epithelial permeability to large molecules. Confluent T84 (A), HT-29cF8 (B) and SK-C015 (C) cell monolayers were treated with either vehicle, ECU, or ML327, as described in the FIG. 1 legend. Trans-monolayer flux of FITC-dextran was determined at the end of the drug treatment. Data is presented as mean ±SE (n=3); **P<0.05 ***P<0.01.
(§3) Transepithelial electrical resistance (TEER) of cultured T84, HT-29 and SK-C015 intestinal epithelial cell monolayers was measured using an EVOMX voltohmmeter (World Precision Instruments, Sarasota, Fla.). Cells were plated on collagen-coated transwell filters (pore size 3 μm, Thermo-Fisher). The resistance of cell-free collagen-coated filters was subtracted from each experimental point. An in vitro dextran flux assay was performed by a following commonly-used protocol. Intestinal epithelial cell monolayers growing on transwell filters were apically exposed to 1 mg/ml of FITC-labeled dextran (4,000 Da) in HEPES-buffered Hanks balanced salt solution (HBSS). After 120 min of incubation, HBSS samples were collected from the lower chamber, and FITC fluorescence intensity was measured using a Victor^3 V plate reader (Perkin Elmer, Waltham, Mass.) with excitation and emission wavelengths 485 and 544 nm, respectively. After subtracting the fluorescence of dextran-free HBSS the amount of FITC dextran translocated across the epithelial cell monolayer was calculated based on a calibration curve using Prism 5 software (GraphPad, La Jolla, Calif.).
(§4) One set of experiments examined the effects of E-cadherin upregulator (ECU) and ML327 on the barrier properties of normal model intestinal epithelial cell monolayers. Three different human colonic epithelial cell lines, namely, T84, SK-0015 and HT-29 cF8 cells, were used. Cells were plated on collagen-coated transwell filters and allowed to reach confluency and differentiate for 5-7 days after plating. Thereafter, cell monolayers were exposed to either ECU (10 μM), ML327 (10 μM) or vehicle (DMSO). Transepithelial electrical resistance (TEER) was measured before and at different times after addition of E-cadherin-enhancing drugs. A transepithelial flux of FITC-dextran was examined at the end of the drug exposure to evaluate epithelial permeability to large uncharged molecules.

Test [3] deals with T84 cell monolayers. Described as above. Type of test: cell-based, human. The note with it: 10 μM. The protocol: as §1, §2, §3, §4
For a further test, the system named is SK-0015 cell monolayers. The test is described as above. Type of test: cell-based, human. The note with it: 10 μM. The protocol: as §1, §2, §3, §4
In test [4] the test system is T84 cell monolayers. As to the kind of experiment: Wound healing assay. Type of test: cell-based, human. The note with it: 10 μM pretreatment 24 h, migration 24-48 hours. The protocol:
FIG. 8: E-cadherin-enhancing drug promote collective migration of intestinal epithelial cells. Confluent T84 cell monolayers were pretreated with either vehicle, ECU (10 μM) or ML327 (10 μM) for 24 hours. Afterwards, cell monolayers were wounded and allowed to migrate into wound area in the presence of the drugs. Cell monolayers were photographed and wound closure was calculated at the indicated times. Data is presented as mean ±SE (n=3); **P<0.05, ***P<0.01.
Confluent epithelial cell monolayers were mechanically wounded by making a thin scratch wound with a 200 μl pipette tip. The bottom of the well was marked to define the position of the wound and the monolayers were supplied with fresh cell culture medium. The images of a cell-free area at the marked region were acquired at the indicated times after wounding using an inverted bright field microscope equipped with a camera. The percentage of wound closure was calculated using an Image J software (NIH, Bethesda, Md.).
Finally, the effects of E-cadherin-enhancing drugs on epithelial restitution (wound healing) were examined. This is an important question given the fact that epithelial wounds are frequently formed in inflamed intestinal mucosa of IBD patients and wound healing is necessary to restore the integrity of the gut barrier and to achieve remission of chronic inflammatory diseases. […]

Test [5] concerns T84 cell monolayers. The experiment in a line: Cytokine (TNFα/IFNγ)-induced disruption of the epithelial barrier (TEER, FITC-dextran flux). Type of test: cell-based, human. The note with it: 10 μM pretreatment 24 h, then TNFα 10 ng/ml + IFNγ 50 ng/ml, 48 h. The protocol: Confluent T84 cell monolayers were pretreated with either vehicle, or ECU (10 μM) for 24 h. Afterwards, cells were exposed to a combination of TNFα (10 ng/ml) and IFNγ (50 ng/ml) with and without ECU. (A) TEER was measured at the indicated times. (B) FITC-dextran flux was examined after 48 h incubation with cytokines. Data is presented as mean ±SE (n=3); ***P<0.001.
Confluent T84 cell monolayers were pretreated with either vehicle, or ML327 (10 μM) for 24 hours. Afterwards, cells were exposed to a combination of TNFα (10 ng/ml) and IFNγ (50 ng/ml) with and without ML327. (A) TEER was measured at the indicated times. (B) FITC-dextran flux was examined after 48 h incubation with cytokines. Data is presented as mean ±SE (n=3); **P<0.05, ***P<0.001.
as §3
A combination of two cytokines were selected: tumor necrosis factor alpha (TNFα, 10 ng/ml) and interferon-gamma (IFNγ, 50 ng/ml), which are known to compromise barrier integrity and trigger apical junction disassembly in cultured epithelial cell monolayers and intestinal mucosa in mice. Indeed, 48 hour incubation of well-differentiated T84 cell monolayers with TNFα and IFNγ caused a dramatic decrease in TEER (FIGS. 3A, 4A) and increase in transepithelial dextran flux (FIGS. 3B, 4B), which indicates the increase in barrier permeability. […] Next, it was examined if ECU protects epithelial adherens junctions (AJ) and tight junctions (TJ) from cytokine-induced disassembly. Immunofluorescence labeling of a specific AJ marker, E-cadherin, and a TJ marker, ZO-1, was used to visualize structure of different junctional complexes. […]

Setting [6] is: at the end of the drug exposure.
The mark [7] stands for this setting: rapid (within 24 h) and sustained (up to 96 h), vs vehicle (DMSO).

Turning to `Nc1ncn([C@@H]2O[C@H](CO)[C@@H](O)[C@H]2O)c(=O)n1` [5-Axacytidine], the E-cadherin expression result in the test with E-cadherin is recorded as “stimulate E-cadherin expression”.
Take `CN(C)C(=S)NN=C(c1ccccn1)c1ccccn1` [Dp44mT, Di(2-pyridyl)ketone 4,4-dimethyl-3-thiosemicarbazone]: in the test on E-cadherin, the E-cadherin expression entry is recorded as “stimulate E-cadherin expression”.
Take `CN(C(=S)NN=C(c1ccccn1)c1ccccn1)C1CCCCC1` [DpC, di(2-pyridyl)ketone 4-cyclohexyl-4-methyl-3-thiosemicarbazone]: the E-cadherin expression result in the test on E-cadherin is listed as “stimulate E-cadherin expression”.
As to `O=C(NCCCNC(=O)c1cccnc1O)c1cc(-c2ccccc2)on1` [ML327, N-(3-(2-hydroxynicotinamido)propyl)-5-phenylisoxazole-3-carboxamide], the “Expression of signaling molecules (pro-migratory signaling)” value with T84 cell monolayers [1] is “activation of pro-migratory signaling events”. Moreover, the “Transepithelial flux of FITC-dextran” value is reported as “significantly inhibited FITC-dextran flux” in test [2] (setting [6]); “significantly inhibited FITC-dextran flux” in the test on T84 cell monolayers [3] (at the end of the drug exposure, T84); “significantly inhibited FITC-dextran flux” with SK-0015 cell monolayers (setting [6]). For the same molecule, the “Transepithelial electrical resistance (TEER)” value in test [2] (up to 96 h, vs vehicle (DMSO)) is on record as “transiently increased TEER for the first 48 hours with its subsequent decrease at later times”; in the test on T84 cell monolayers [3] (setting [7]), “increase in TEER”; with SK-0015 cell monolayers (setting [7]), “increase in TEER”. Moreover, the “Cell migration during wound healing (wound closure)” value with T84 cell monolayers [4] is “significantly increased migration”. For the same molecule, the “Cytokine-induced decrease in TEER” value with T84 cell monolayers [5] is “prevents cytokine-induced disruption; also recorded: markedly attenuated”. In the test on T84 cell monolayers [5], the “Cytokine-induced increase in transepithelial FITC-dextran flux” value is given as “prevents cytokine-induced disruption; also recorded: markedly attenuated”.
For the molecule `CCCCCCCCCCCCC/C=C/[C@@H](O)[C@@H](N)COP(=O)(O)O` [Sphingosine-1-Phosphate], the E-cadherin expression result with E-cadherin was “stimulate E-cadherin expression”.
As for `CN(Cc1cnc2nc(N)nc(N)c2n1)c1ccc(C(=O)N[C@@H](CCC(=O)O)C(=O)O)cc1` [methotrexate], in the test with E-cadherin, the E-cadherin expression entry was “stimulated E-cadherin expression”.
